Our source for the IC50 and Ki values is ChEMBL document CHEMBL1909046, “DrugMatrix in vitro pharmacology data”.

For one experiment, the target named is Adenosine receptor A2a (Homo sapiens, UniProt P29274). Briefly: DRUGMATRIX: Adenosine A2A radioligand binding (ligand: […]). The settings on record: hek293; Not Active = under 50% inhibition at 10 µM. It is filed as cell membranes, HEK293, Membrane.
Experiment [1] is described as follows: DRUGMATRIX: Phosphodiesterase PDE3 enzyme inhibition (substrate: [3H]cAMP + cAMP). Particulars: platelet, Not Active = under 50% inhibition at 10 µM. It is filed as tissue-based, Homo sapiens.
Experiment [2] in a line: DRUGMATRIX: ATPase, Na+/K+ enzyme inhibition (substrate: ATP). Type of experiment: tissue-based, Sus scrofa, Heart. The settings on record: Not Active = under 50% inhibition at 10 µM.
Experiment [3] in a line: DRUGMATRIX: Calcium Channel Type L, Dihydropyridine radioligand binding (ligand: [3H] Nitrendipine). Type of experiment: cell membranes, Rattus norvegicus, Wistar, Cerebral cortex, Membrane. Particulars: Not Active = under 50% inhibition at 10 µM.
Another experiment addresses Substance-P receptor (Homo sapiens, UniProt P25103). Type of experiment: cell membranes, CHO, Membrane. Particulars: cho.
Experiment [4] concerns the target Kappa-type opioid receptor (Homo sapiens, UniProt P41145). Briefly: DRUGMATRIX: Opiate kappa (OP2, KOP) radioligand binding (ligand: [3H] Diprenorphine). It is filed as cell membranes, HEK293, Membrane. The settings on record: hek293; Not Active = under 50% inhibition at 10 µM.
The target in the next experiment is T1, Glucocorticoid receptor (Homo sapiens, UniProt P04150). Note: in other assays of this panel Not Active means under 50% inhibition at 10 µM.
T1 sequence (P04150 whole entry): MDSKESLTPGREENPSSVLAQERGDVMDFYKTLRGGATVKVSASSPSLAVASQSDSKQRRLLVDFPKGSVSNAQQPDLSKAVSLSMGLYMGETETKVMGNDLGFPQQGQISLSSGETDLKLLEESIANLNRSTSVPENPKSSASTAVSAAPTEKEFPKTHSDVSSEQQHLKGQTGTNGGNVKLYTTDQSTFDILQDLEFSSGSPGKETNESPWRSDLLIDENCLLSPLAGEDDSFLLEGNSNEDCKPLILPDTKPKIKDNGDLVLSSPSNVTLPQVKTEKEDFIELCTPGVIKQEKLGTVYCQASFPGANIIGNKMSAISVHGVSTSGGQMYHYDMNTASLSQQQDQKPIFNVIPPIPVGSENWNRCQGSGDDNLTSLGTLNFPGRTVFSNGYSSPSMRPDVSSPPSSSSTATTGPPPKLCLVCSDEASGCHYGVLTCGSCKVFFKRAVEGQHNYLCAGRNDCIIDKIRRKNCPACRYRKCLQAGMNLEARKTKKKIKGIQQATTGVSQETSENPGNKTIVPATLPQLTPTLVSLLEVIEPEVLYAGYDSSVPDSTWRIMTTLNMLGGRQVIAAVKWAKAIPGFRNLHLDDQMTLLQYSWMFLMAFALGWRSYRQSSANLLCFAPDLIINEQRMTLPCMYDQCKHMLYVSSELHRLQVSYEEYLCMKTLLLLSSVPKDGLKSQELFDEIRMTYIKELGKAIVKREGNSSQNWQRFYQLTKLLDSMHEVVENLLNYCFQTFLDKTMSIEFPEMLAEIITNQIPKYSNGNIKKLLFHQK
The settings on record: hela s3.

A short description of experiment [5]: DRUGMATRIX: Interleukin IL-1 radioligand binding (ligand: [125I] interleukin 1beta). It is filed as cell membranes, Membrane. Particulars: nih3t3; Not Active = under 50% inhibition at 10 µM.
The target of experiment [6] is Delta-type opioid receptor (Homo sapiens, UniProt P41143). Type of experiment: cell membranes, HEK293, Membrane. Particulars: hek293. Note: in other assays of this panel Not Active means under 50% inhibition at 10 µM.
The target in experiment [7] is T2, Amine oxidase [flavin-containing] A (Homo sapiens, UniProt P21397).
T2 sequence (P21397 whole entry): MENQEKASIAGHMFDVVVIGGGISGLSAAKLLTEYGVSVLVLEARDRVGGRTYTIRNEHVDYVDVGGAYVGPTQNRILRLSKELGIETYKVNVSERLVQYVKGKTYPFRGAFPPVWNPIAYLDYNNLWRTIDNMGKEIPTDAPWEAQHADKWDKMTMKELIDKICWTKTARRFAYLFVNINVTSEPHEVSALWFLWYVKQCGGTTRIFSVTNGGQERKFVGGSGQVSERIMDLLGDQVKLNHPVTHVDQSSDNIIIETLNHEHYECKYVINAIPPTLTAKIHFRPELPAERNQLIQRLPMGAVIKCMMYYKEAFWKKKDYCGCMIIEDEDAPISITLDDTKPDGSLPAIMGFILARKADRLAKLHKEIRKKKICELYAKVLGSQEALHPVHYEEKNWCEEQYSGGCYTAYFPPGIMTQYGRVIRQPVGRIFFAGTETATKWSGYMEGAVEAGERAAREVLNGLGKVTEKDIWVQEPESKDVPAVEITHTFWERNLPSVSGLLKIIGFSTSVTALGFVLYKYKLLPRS
Briefly: DRUGMATRIX: Monoamine Oxidase MAO-A enzyme inhibition (substrate: Kynuramine). Set-up: species or system BTI-TN-5B1-4. Particulars: bti-tn-5b1-4; Not Active = under 50% inhibition at 10 µM.

The nature of experiment [8]: DRUGMATRIX: Phosphodiesterase PDE4 enzyme inhibition (substrate: [3H]cAMP + cAMP). The settings on record: u-937; Not Active = under 50% inhibition at 10 µM.
For experiment [9], the target named is T3, C-X-C chemokine receptor type 2 (Homo sapiens, UniProt P25025). Note: in other assays of this panel Not Active means under 50% inhibition at 10 µM.
T3 sequence (P25025 whole entry): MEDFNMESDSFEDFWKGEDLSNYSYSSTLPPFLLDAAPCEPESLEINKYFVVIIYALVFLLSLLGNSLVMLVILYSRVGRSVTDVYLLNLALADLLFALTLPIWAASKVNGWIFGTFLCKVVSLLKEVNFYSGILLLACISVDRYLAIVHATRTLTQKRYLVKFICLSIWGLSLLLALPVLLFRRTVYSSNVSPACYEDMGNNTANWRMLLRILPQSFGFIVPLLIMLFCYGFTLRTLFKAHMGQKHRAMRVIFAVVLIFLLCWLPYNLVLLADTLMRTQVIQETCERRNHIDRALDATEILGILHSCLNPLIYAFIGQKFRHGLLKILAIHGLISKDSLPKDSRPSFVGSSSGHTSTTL
It is filed as cell membranes, Membrane. Particulars: cho-k1.

Experiment [10] is described as follows: DRUGMATRIX: Leukotriene, BLT (LTB4) radioligand binding (ligand: [3H]LTB4). It is filed as cell membranes, Membrane. The settings on record: u-937; Not Active = under 50% inhibition at 10 µM.

Kappa-type opioid receptor, sequence (P41145 whole entry): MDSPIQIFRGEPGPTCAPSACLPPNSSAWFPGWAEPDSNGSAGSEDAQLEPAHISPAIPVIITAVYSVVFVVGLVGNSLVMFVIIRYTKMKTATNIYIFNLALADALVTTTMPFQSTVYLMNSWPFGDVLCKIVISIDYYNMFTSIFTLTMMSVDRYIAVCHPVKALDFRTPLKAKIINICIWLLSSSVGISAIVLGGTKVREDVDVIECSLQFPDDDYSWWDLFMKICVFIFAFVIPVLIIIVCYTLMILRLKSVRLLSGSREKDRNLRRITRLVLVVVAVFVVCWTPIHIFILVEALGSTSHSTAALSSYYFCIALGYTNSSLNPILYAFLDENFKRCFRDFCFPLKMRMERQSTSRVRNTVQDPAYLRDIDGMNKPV
Adenosine receptor A2a, sequence (P29274 whole entry): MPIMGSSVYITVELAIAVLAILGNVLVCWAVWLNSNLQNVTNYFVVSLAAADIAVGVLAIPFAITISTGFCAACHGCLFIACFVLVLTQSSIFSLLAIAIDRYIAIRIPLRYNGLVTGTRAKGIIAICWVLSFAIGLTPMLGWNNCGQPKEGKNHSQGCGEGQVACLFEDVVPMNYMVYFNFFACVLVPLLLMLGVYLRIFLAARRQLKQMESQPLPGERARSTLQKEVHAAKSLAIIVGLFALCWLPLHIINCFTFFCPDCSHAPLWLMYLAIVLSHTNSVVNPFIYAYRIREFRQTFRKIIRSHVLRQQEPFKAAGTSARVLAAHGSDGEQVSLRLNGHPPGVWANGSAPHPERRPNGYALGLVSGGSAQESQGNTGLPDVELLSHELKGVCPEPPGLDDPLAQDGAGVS
Substance-P receptor, sequence (P25103 whole entry): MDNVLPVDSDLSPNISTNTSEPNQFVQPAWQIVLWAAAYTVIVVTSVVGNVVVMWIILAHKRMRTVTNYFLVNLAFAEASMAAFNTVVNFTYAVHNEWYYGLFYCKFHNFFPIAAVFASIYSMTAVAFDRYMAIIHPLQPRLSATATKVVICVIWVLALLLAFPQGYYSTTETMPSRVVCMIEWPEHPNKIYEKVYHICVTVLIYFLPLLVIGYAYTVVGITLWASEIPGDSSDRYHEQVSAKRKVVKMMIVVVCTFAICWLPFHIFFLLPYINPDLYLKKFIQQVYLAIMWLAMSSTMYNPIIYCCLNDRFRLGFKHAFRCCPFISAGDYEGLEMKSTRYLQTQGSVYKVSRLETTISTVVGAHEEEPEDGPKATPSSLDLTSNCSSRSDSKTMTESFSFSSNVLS
Delta-type opioid receptor, sequence (P41143 whole entry): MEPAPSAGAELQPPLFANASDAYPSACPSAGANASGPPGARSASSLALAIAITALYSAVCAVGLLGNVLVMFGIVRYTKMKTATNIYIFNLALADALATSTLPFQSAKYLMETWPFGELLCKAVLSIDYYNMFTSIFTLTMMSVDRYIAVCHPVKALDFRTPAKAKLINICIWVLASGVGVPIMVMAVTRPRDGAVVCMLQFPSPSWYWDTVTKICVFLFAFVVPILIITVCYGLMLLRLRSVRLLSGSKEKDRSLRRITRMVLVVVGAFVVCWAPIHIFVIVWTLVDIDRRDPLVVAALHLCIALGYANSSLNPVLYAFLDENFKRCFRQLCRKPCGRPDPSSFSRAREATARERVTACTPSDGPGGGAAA

With `COCc1c(C(C)C)nc(C(C)C)c(/C=C/[C@@H](O)C[C@@H](O)CC(=O)O)c1-c1ccc(F)cc1` [CERIVASTATIN], the half-maximal inhibitory concentration (IC50) entry (at Adenosine receptor A2a; in [1]; in experiment [2]; in experiment [3]; at Substance-P receptor; in experiment [4]) was “Not Active” throughout. The IC50 entry (on Glucocorticoid receptor; in experiment [5]; in experiment [6]; in experiment [7]; in [8]; in experiment [9]) was “Not Active” in each case. For the same compound, the IC50 entry in experiment [10] is “Not Active”. The Ki entry in experiment [1], in [2], in [3], in [5], in experiment [8] and in experiment [10] was “Not Active” throughout.
`O=C1CCc2cc(OCCCCc3nnnn3C3CCCCC3)ccc2N1` [CILOSTAZOL]: the IC50 result at Adenosine receptor A2a was “Not Active”; in experiment [1] (read-out: IC50), 271 nM; in experiment [2], “Not Active”; in [3], “Not Active”; against Substance-P receptor, “Not Active”; in experiment [4], “Not Active”. The IC50 result (at Glucocorticoid receptor; in experiment [5]; in experiment [6]; in experiment [7]; in experiment [8]; in experiment [9]) was “Not Active” each time. Further, the IC50 result in [10] is on record as “Not Active”. For the same compound, the Ki entry in experiment [2], in [3], in [5], in experiment [8] and in experiment [10] was “Not Active” in each case.
For the compound `O=C(O)c1cn(C2CC2)c2cc(N3CCNCC3)c(F)cc2c1=O` [CIPROFLOXACIN], the IC50 result (on Adenosine receptor A2a; in [1]; in experiment [2]; in experiment [3]; on Substance-P receptor; in experiment [4]) was “Not Active” throughout. For the same compound, the IC50 result (on Glucocorticoid receptor; in experiment [5]; in [6]; in experiment [7]; in [8]; in experiment [9]) was “Not Active” throughout. Besides, in [10], the IC50 entry is listed as “Not Active”. Besides, the Ki entry in experiment [1], in [2], in [3], in [5], in experiment [8] and in experiment [10] was “Not Active” in each case.
Turning to `CN(C)CCCC1(c2ccc(F)cc2)OCc2cc(C#N)ccc21` (stereo not drawn) [CITALOPRAM], the IC50 result (at Adenosine receptor A2a; in [1]; in experiment [2]; in experiment [3]; on Substance-P receptor; in experiment [4]) was “Not Active” throughout. For the same compound, the IC50 entry (at Glucocorticoid receptor; in experiment [5]; in experiment [6]; in [7]; in experiment [8]; in experiment [9]) was “Not Active” throughout. In [10], the concentration for half-maximal inhibition (IC50) entry is listed as “Not Active”. Also, the Ki result in [1], in [2], in [3], in [5], in [8] and in [10] was “Not Active” in each case.
With `COC(=O)[C@H](c1ccccc1Cl)N1CCc2sccc2C1` [CLOPIDOGREL], the IC50 result (at Adenosine receptor A2a; in [1]; in experiment [2]; in experiment [3]; on Substance-P receptor; in [4]) was “Not Active” each time. Also, the IC50 result (at Glucocorticoid receptor; in experiment [5]; in experiment [6]; in [7]; in experiment [8]; in [9]) was “Not Active” throughout. Moreover, the IC50 result in experiment [10] was “Not Active”. In addition, the Ki result in [1], in experiment [2], in [3], in experiment [5], in experiment [8] and in experiment [10] was “Not Active” each time.
`Cc1ccccc1N1CCN(CCc2nnc3n2CCCC3)CC1` [DAPIPRAZOLE]: the IC50 entry (on Adenosine receptor A2a; in [1]; in [2]; in experiment [3]; against Substance-P receptor; in [4]) was “Not Active” throughout. Moreover, the IC50 result (against Glucocorticoid receptor; in [5]; in experiment [6]; in experiment [7]; in [8]; in experiment [9]) was “Not Active” throughout. In addition, in experiment [10], the IC50 result is “Not Active”. Moreover, the Ki result in [1], in experiment [2], in experiment [3], in [5], in [8] and in [10] was “Not Active” throughout.
